Results on 15 compounds are retold here after US10414754B2, “Indolizine compounds, a process for their preparation and pharmaceutical compositions containing them” (LES LABORATOIRES SERVIER, priority 2013, dated 2019).

Where a name gives a salt, the structure may show the parent alone.

The test system of assay [1] is RS4;11 leukaemia tumour line. Put plainly: In vitro cytotoxicity (MTT) on RS4;11. The note with it: RS4;11 cells, 48 hours exposure. The assay is classed as cell-based. As for the experimental part:
The cytotoxicity studies were carried out on the RS4;11 leukaemia tumour line.
The cells are distributed onto microplates and exposed to the test compounds for 48 hours.
The cell viability is then quantified by a colorimetric assay, the Microculture Tetrazolium Assay (Cancer Res., 1987, 47, 939-942).

The target of a further assay is T1, Bcl-2 protein (histag-Bcl-2, UniProtKB P10415) (Homo sapiens, UniProt P10415).
T1 construct: His tag
T1 sequence (P10415 whole entry): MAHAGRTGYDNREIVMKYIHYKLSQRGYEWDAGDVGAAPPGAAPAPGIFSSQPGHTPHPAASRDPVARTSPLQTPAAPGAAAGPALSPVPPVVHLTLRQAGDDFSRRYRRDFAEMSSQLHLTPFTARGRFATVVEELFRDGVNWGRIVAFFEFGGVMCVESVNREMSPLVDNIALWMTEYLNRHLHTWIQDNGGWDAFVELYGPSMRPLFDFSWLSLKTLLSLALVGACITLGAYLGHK
Briefly: Inhibition of Bcl-2 by the fluorescence polarisation technique. The assay is classed as binding. The note with it: for IC50: fluorescence polarisation, 2 hours incubation, read-out: IC50 (nM) Bcl-2 FP. Put shortly:
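Fluorescence polarisation competition: His-tagged human Bcl-2 (2.50×10^−8 M final) was mixed with fluorescein-labelled peptide (1.00×10^−8 M final) and increasing compound concentrations. Buffer was 10 mM Hepes, 150 mM NaCl, 0.05% Tween20, pH 7.4. Polarisation was read after 2 h.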
A general note: In fluorescence polarisation assays a small probe gives low polarisation when free and higher when bound to something large.

For orientation: IC50 means the concentration that inhibits the measured activity by half. As for `C[C@@H]1Cc2ccccc2CN1C(=O)c1ccc(F)cc1-c1cc(C(=O)N(c2ccncc2)c2ccc(O)cc2)c2ccccn12` [Example 62, 3-(5-Fluoro-2-{[(3R)-3-methyl-3,4-dihydroisoquinolin-2(1H)-yl]-carbonyl}phenyl)-N-(4-hydroxyphenyl)-N-(pyridin-4-yl)indolizine-1-carboxamide], the IC50 in assay [1] (Homo sapiens) is 96.6 nM; on Bcl-2 protein, 5.6 nM.

On to `C[C@@H]1Cc2ccccc2CN1C(=O)c1ccc(F)cc1-c1cc(C(=O)N(c2ccc(O)cc2)c2cnc3c(ccn3C)c2)c2ccccn12` [Example 63, 3-(5-Fluoro-2-{[(3R)-3-methyl-3,4-dihydroisoquinolin-2(1H)-yl]-carbonyl}phenyl)-N-(4-hydroxyphenyl)-N-(1-methyl-1H-pyrrolo[2,3-b]pyridin-5-yl)indolizine-1-carboxamide], for which the IC50 in assay [1] (Homo sapiens) stood at 25.4 nM; on Bcl-2 protein it was 6.2 nM.

For the compound `C[C@@H]1Cc2ccccc2CN1C(=O)c1ccc(F)cc1-c1cc(C(=O)N(c2ccncc2)c2ccc(O)cc2)c2n1CCCC2` [Example 64, 3-(5-Fluoro-2-{[(3R)-3-methyl-3,4-dihydroisoquinolin-2(1H)-yl]-carbonyl}phenyl)-N-(4-hydroxyphenyl)-N-(pyridin-4-yl)-5,6,7,8-tetrahydroindolizine-1-carboxamide], the IC50 came out at 282 nM in assay [1] (Homo sapiens) and 7.8 nM at Bcl-2 protein.

Consider `C[C@@H]1Cc2ccccc2CN1C(=O)c1ccc(F)cc1-c1cc(C(=O)N(c2ccc(O)cc2)c2cnc3c(ccn3C)c2)c2n1CCCC2` [Example 65, 3-(5-Fluoro-2-{[(3R)-3-methyl-3,4-dihydroisoquinolin-2(1H)-yl]-carbonyl}phenyl)-N-(4-hydroxyphenyl)-N-(1-methyl-1H-pyrrolo[2,3-b]pyridin-5-yl)-5,6,7,8-tetrahydroindolizine-1-carboxamide], for which the IC50 in assay [1] (Homo sapiens) was 62.8 nM; on Bcl-2 protein it was 5.3 nM.

Regarding `C[C@@H]1Cc2ccccc2CN1C(=O)c1cc2c(cc1-c1cc(C(=O)N(c3ccc(O)cc3)c3cnc4ncnn4c3)c3ccccn13)OCO2` [Example 66, N-(4-Hydroxyphenyl)-3-(6-{[(3R)-3-methyl-3,4-dihydroisoquinolin-2(1H)-yl]carbonyl}-1,3-benzodioxol-5-yl)-N-([1,2,4]triazolo[1,5-a]pyrimidin-6-yl)-indolizine-1-carboxamide], the IC50 in assay [1] (Homo sapiens) was 42 nM; on Bcl-2 protein, 4.7 nM.

With `C[C@@H]1Cc2ccccc2CN1C(=O)c1ccccc1-c1cc(C(=O)N(c2ccncc2)c2ccc(O)cc2)c2ccccn12` [Example 68, N-(4-Hydroxyphenyl)-3-(2-{[(3R)-3-methyl-3,4-dihydroisoquinolin-2(1H)-yl]carbonyl}phenyl)-N-(pyridin-4-yl)indolizine-1-carboxamide hydrochloride], the IC50 in assay [1] (Homo sapiens) came out at 82.4 nM; at Bcl-2 protein it was 8.3 nM.

Turning to `Cn1ccc2cc(N(C(=O)c3cc(-c4cc5c(cc4C(=O)N4Cc6ccccc6C[C@H]4CCCN4CCOCC4)OCO5)n4c3CCCC4)c3ccc(O)cc3)cnc21` [Example 69, N-(4-Hydroxyphenyl)-N-(1-methyl-1H-pyrrolo[2,3-b]pyridin-5-yl)-3-(6-{[(3R)-3-[3-(morpholin-4-yl)propyl]-3,4-dihydroisoquinolin-2(1H)-yl]carbonyl}-1,3-benzodioxol-5-yl)-5,6,7,8-tetrahydroindolizine-1-carboxamide hydrochloride], the IC50 in assay [1] (Homo sapiens) was determined as 1.38 nM; at Bcl-2 protein, 4.6 nM.

In the case of `C[C@@H]1Cc2ccccc2CN1C(=O)c1cc2c(cc1-c1cc(C(=O)N(c3ccc(O)cc3)c3cnc4c(cnn4C)c3)c3ccccn13)OCO2` [Example 70, N-(4-Hydroxyphenyl)-3-(6-{[(3R)-3-methyl-3,4-dihydroisoquinolin-2(1,H)-yl]carbonyl]-1,3-benzodioxol-5-yl)-N-(1-methyl-1H-pyrazolo[3,4-b]pyridin-5-yl)indolizine-1-carboxamide], the IC50 in assay [1] (Homo sapiens) worked out at 6.17 nM; at Bcl-2 protein it was 5.2 nM.

Consider `C[C@@H]1Cc2ccccc2CN1C(=O)c1cc2c(cc1-c1cc(C(=O)N(C)c3ccc(O)cc3)c3n1CCNC3)OCO2` [Example 72, N-(4-Hydroxyphenyl)-N-methyl-6-(6-{[(3R)-3-methyl-3,4-dihydroiso-quinolin-2(1H)-yl]carbonyl}-1,3-benzodioxol-5-yl)-1,2,3,4-tetrahydropyrrolo[1,2-a]-pyrazine-8-carboxamide], for which the IC50 worked out at 1520 nM in assay [1] (Homo sapiens) and 90.2 nM on Bcl-2 protein.

Turning to `CCN(C(=O)c1cc(-c2cc3c(cc2C(=O)N2Cc4ccccc4C[C@H]2C)OCO3)n2c1CNCC2)c1ccc(O)cc1` [Example 73, N-Ethyl-N-(4-hydroxyphenyl)-6-(6-{[(3R)-3-methyl-3,4-dihydroiso-quinolin-2(1H)-yl]carbonyl}-1,3-benzodioxol-5-yl)-1,2,3,4-tetrahydropyrrolo[1,2-a]-pyrazine-8-carboxamide], the IC50 stood at 1320 nM in assay [1] (Homo sapiens) and 83.6 nM at Bcl-2 protein.

`CN(C(=O)c1cc(-c2cc3c(cc2C(=O)N2CCc4ccccc4C2)OCO3)n2c1CCCC2)c1ccc(O)cc1` [Example 74, 3-[6-(3,4-Dihydroisoquinolin-2(1H)-ylcarbonyl)-1,3-benzodioxol-5-yl]-N-(4-hydroxyphenyl)-N-methyl-5,6,7,8-tetrahydroindolizine-1-carboxamide]: the IC50 in assay [1] (Homo sapiens) was determined as 1340 nM; on Bcl-2 protein, 68.7 nM.

In the case of `CCN(C(=O)c1cc(-c2cc3c(cc2C(=O)N2CCc4ccccc4C2)OCO3)n2c1CCCC2)c1ccc(O)cc1` [Example 75, 3-[6-(3,4-Dihydroisoquinolin-2(11)-ylcarbonyl)-1,3-benzodioxol-5-yl]-N-ethyl-N-(4-hydroxyphenyl)-5,6,7,8-tetrahydroindolizine-1-carboxamide], the IC50 in assay [1] (Homo sapiens) stood at 1360 nM; on Bcl-2 protein, 67.7 nM.

Consider `CCCCN(C(=O)c1cc(-c2cc3c(cc2C(=O)N2CCc4ccccc4C2)OCO3)n2c1CCCC2)c1ccc(O)cc1` [Example 76, N-Butyl-3-[6-(3,4-dihydroisoquinolin-2(1H)-ylcarbonyl)-1,3-benzo-dioxol-5-yl]-N-(4-hydroxyphenyl)-5,6,7,8-tetrahydroindolizine-1-carboxamide], for which the IC50 came to 1630 nM in assay [1] (Homo sapiens) and 77.6 nM on Bcl-2 protein.

In assay [1], `CCN(C(=O)c1cc(-c2cc3c(cc2C(=O)N2Cc4ccccc4C[C@@H]2C)OCO3)n2c1CNCC2)c1ccc(O)cc1` [Example 77, N-Ethyl-N-(4-hydroxyphenyl)-6-(6-{[(3S)-3-methyl-3,4-dihydroiso-quinolin-2(1H)-yl]carbonyl}-1,3-benzodioxol-5-yl)-1,2,3,4-tetrahydropyrrolo[1,2-a]-pyrazine-8-carboxamide] returned an IC50 of 1880 nM. Moreover, the “percentage fluorescence polarisation inhibition (partial inhibitors), Bcl-2 FP” value at Bcl-2 protein (@ 10 μM test compound) is recorded as 25.1% @ 10 μM.

Turning to `CCCCN(CCCC)C(=O)c1cc(-c2cc3c(cc2C(=O)N2Cc4ccccc4C[C@H]2C)OCO3)n2c1CNCC2` [Example 78, N,N-Dibutyl-6-(6-{[(3R)-3-methyl-3,4-dihydroisoquinolin-2(1H)-yl]-carbonyl}-1,3-benzodioxol-5-yl)-1,2,3,4-tetrahydropyrrolo[1,2-a]pyrazine-8-carboxamide], the IC50 was 1880 nM in assay [1] (Homo sapiens) and 823 nM on Bcl-2 protein.
